Test results reported in patent publication US6680327B2, “Crystalline form VII of cabergoline” (Pharmacia Italia SpA, priority 2000, dated 2004).

Experiments:
[1] = thermodynamic stability of cabergoline polymorphs; format: physicochemical
Experimental: It can be readily prepared by slurry of form I or mixture of form I and VII in a solvent at a temperature over 30° C. The importance of cabergoline form VII rests primarily (but not exclusively) in thermodynamic stability.
The present invention also provides a process for producing crystalline cabergoline Form VII by subjecting crystals of form I or a mixture of crystals form I and VII to a slurry procedure at a temperature over 30° C. Preferably, the process comprises suspending crystals of form I or a mixture of crystals form I and VII in an organic solvent, such as n-heptane, diethyl ether, or n-hexane, at a temperature of from +30° to +80° C., more preferably about 55° C. The resultant suspension is then stirred at this temperature for about from 24 to 120 hours, more preferably for about 48 hours.

prolactine = test: inhibitory effect with regard prolactine; conditions: statement in words, no test described

C=CCN1C[C@H](C(=O)N(CCCN(C)C)C(=O)NCC)C[C@@H]2c3cccc4[nH]cc(c34)C[C@H]21 [Form VII, 1((6-allylergolin-8beta-yl)-carbonyl)-1-(3-dimethylaminopropyl)-3-ethylurea]
stability with respect to form I ([1]; compared with form I): greater stability | thermodynamic stability of the polymorph ([1]; range of temperature between +30° and +80° C.): thermodynamically most stable polymorph | inhibitory effect with regard prolactine (prolactine): significant inhibitory effect
